Earlier results as cited in US20250049818A1, “PRENATAL SUPPLEMENT COMPOSITIONS FOR INCREASING BREASTMILK MICRONUTRIENT LEVELS” (SOCIÉTÉ DES PRODUITS NESTLÉ S.A., priority 2021, published 2025).
Read-outs that look alike come from different tables or passages of the source.

Assays:
[1] = 5 mg/day, Indian infants small for gestational age
[2] = daily supplementation during pregnancy only, zinc 30 mg
[3] = 10 mg/day for 120 days, Indian infants aged 6-35 months
[4] = children of developing world, meta-analysis

Row | Structure (SMILES) | mean vitamin D activity (VDA) of human milk (two months post-partum, 1,000 IU group) | mean vitamin D activity (VDA) of human milk (two months post-partum, 2,000 IU group) | mean vitamin D activity (VDA) of human milk (two weeks post-partum, 1,000 IU daily oral, 27-36 weeks of gestation) | mean vitamin D activity (VDA) of human milk (two weeks post-partum, 2,000 IU daily oral, 27-36 weeks of gestation) | reduction in mortality [1] | human milk zinc concentration ([2]; 1 month postpartum) | human milk zinc concentration ([2]; 6 months postpartum) | reduction in incidence of acute lower respiratory infections [3] | reduced diarrhoea [4]
1 | C=C1CC[C@H](O)C/C1=C/C=C1\CCC[C@]2(C)[C@@H]([C@H](C)CCCC(C)C)CC[C@@H]12 [vitamin D3, cholecalciferol] | 43 IU/L | 58 IU/L | 51 IU/L | 74 IU/L | – | – | – | – | –
2 | [Zn] [zinc] | – | – | – | – | 68% | 49.3 (31.3-62.1) μmol/L | 15.3 (11.8-27.2) μmol/L | 45% | 18%
